Measurements from BindingDB's records for doi:10.1016/j.ejphar.2003.10.049 (University of Innsbruck, 2004).

What was measured:
[1] = target: Kappa-type opioid receptor (Rattus norvegicus, UniProt P34975)
[2] = target: Delta-type opioid receptor (Rattus norvegicus, UniProt P33533)
Mu-type opioid receptor = Mu-type opioid receptor (Rattus norvegicus, UniProt P33535)
Sequence of Mu-type opioid receptor (P33535 whole entry): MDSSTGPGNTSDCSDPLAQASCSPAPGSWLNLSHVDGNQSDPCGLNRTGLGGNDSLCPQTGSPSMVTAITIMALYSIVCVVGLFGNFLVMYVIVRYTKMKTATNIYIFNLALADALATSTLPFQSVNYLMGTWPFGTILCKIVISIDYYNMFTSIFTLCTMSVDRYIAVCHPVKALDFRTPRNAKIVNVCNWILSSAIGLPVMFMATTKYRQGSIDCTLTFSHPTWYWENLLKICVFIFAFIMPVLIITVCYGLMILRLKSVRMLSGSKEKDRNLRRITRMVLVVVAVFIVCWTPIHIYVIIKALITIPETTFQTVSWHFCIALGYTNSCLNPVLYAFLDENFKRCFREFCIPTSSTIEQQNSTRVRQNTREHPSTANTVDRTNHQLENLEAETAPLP

Sequence of Kappa-type opioid receptor (P34975 whole entry): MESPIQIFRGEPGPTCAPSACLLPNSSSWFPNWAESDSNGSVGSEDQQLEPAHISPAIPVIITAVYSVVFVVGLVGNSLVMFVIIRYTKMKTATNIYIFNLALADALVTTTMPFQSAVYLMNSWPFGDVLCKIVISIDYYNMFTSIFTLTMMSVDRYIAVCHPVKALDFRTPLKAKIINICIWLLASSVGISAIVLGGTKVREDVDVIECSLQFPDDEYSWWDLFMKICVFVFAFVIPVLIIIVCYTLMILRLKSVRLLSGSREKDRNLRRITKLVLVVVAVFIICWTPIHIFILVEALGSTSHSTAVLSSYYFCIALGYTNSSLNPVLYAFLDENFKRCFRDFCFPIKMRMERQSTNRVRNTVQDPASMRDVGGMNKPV
Sequence of Delta-type opioid receptor (P33533 whole entry): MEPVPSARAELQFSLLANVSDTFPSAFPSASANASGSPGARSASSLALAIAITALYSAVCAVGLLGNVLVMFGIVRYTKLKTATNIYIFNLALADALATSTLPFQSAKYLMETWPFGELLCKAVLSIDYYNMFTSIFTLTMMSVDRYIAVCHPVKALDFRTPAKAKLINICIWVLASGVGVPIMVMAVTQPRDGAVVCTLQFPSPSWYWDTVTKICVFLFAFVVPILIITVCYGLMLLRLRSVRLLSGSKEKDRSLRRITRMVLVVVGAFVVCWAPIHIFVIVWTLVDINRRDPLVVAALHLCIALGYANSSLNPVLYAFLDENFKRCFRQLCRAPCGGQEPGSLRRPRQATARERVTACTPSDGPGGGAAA

Row | SMILES | Ki [1] [nM] | Ki [2] [nM] | Ki (Mu-type opioid receptor) [nM]
1 | COC12CC[C@H](N[C@H](C)C(=O)O)[C@@H]3Oc4c(O)ccc5c4[C@@]31CCN(C)C2C5 (stereo partly drawn) [(2S)-2-[4,5alpha-epoxy-3-hydroxy-14beta-methoxy-17-methylmorphinan-6alpha-yl)amino]propanoic acid bis(tetrafluoroborate)] | 142 | 26.9 | –
2 | COC12CC[C@@H](N[C@H](C)C(=O)O)[C@@H]3Oc4c(O)ccc5c4[C@@]31CCN(C)C2C5 (stereo partly drawn) [(2S)-2-[4,5alpha-epoxy-3-hydroxy-14beta-methoxy-17-methylmorphinan-6beta-yl)amino]propanoic acid bis(tetrafluoroborate)] | 63.7 | 7.71 | –
3 | COC12CC[C@H](N[C@H](Cc3ccccc3)C(=O)O)[C@@H]3Oc4c(O)ccc5c4[C@@]31CCN(C)C2C5 (stereo partly drawn) [(2S)-2-[(4,5alpha-epoxy-3-hydroxy-14beta-methoxy-17-methylmorphinan-6alpha-yl)amino]-3-phenylpropanoic acid bis(tetrafluroborate)] | 28.5 | – | 0.95
4 | COC12CC[C@@H](N[C@H](Cc3ccccc3)C(=O)O)[C@@H]3Oc4c(O)ccc5c4[C@@]31CCN(C)C2C5 (stereo partly drawn) [(2S)-2-[(4,5alpha-epoxy-3-hydroxy-14beta-methoxy-17-methylmorphinan-6beta-yl)amino]-3-phenylpropanoic acid bis(tetrafluoroborate)] | 151 | 1.03 | 2.58
5 | CCO[C@@]12Cc3c([nH]c4ccccc34)[C@]3(C)Oc4c(O)ccc5c4[C@@]31CCN(CC1CC1)C2C5 [HS-378] | 134 | – | 340
